Test results: patent publication US20070167510A1, “Methods for inhibiting osteoclastogenesis” (priority 2006, published 2007)

Tests used:
MIP-1α = assay: Bio-plex cytokine assay of osteoclast culture supernatants: MIP-1α; format: cell-based, human; settings: day four; controls 12,000
From the text: […] of IL-1α, IL-1β, IL-2, IL-3, IL-4, IL-5, IL-6, IL-7, IL-8, IL-9, IL-10, IL-13, IL-15, IL-17, IL-12p40, IFNα, IFNγ, TNF-α, TNFR-I, TNFR-II, G-CSF, GM-CSF, MCP-1, MIP-1α, MIP-1β, MIG, IP-10, EOTAXIN, RANTES, DR5, EGF, VEGF, FGF-b, and HGF by Bio-plex Cytokine Assay (BIO-RAD Laboratories, USA).

[1] = test system: MC-42 cells (MC3T3-E1 pre-osteoblastic); assay: Osteoblast differentiation: ALP activity; format: cell-based, mouse; settings: SDX-101 75 μM, SDX-308 7.5 μM, 24 hours
From the text: (§1) Cells were then harvested for luciferase and ALP (alkaline phosphatase) activity assay. Luciferase and ALP activity were normalized to total protein content of the sample (Xiao G et al. (1997) Mol. Endocrinol. 11:1103-13). […] Samples were then stained using the Von Kossa method (Xiao G et al. (1998) J. Biol. Chem. 273:32988-94).

[2] = test system: CFU-GM colony cells (osteoclast precursors); assay: Osteoclast formation assay with purified CFU-GM cells; format: cell-based, human
RAW 264.7 cells [3] = assay: RANKL-induced OCL differentiation of RAW 264.7 cells (TRAP); format: cell-based, murine; settings: 5 days, RANKL 50 ng/ml, SDX-101 75 μM, SDX-308 7.5 μM
Method: (§2) The culture was incubated for a total of 3 weeks at 37° C. in an incubator of 5% CO2-air. OCL formation was assessed by staining with monoclonal antibody 23c6, which recognizes the CD51/61 dimer on the osteoclast vitronectin receptor (generously provided by Michael Horton, Rayne Institute, Bone and Mineral Center, London, UK), using a Vectastatin-ABC-AP kit (Vector Laboratories, Inc. Burlingame, Calif.). The 23c6^+ multinucleated osteoclasts containing 3 or more nuclei per osteoclast were scored using an inverted microscope. For RAW 264.7 cells, OCL differentiation assay was carried out in 96-well plates. […] Half media change was performed every 2-3 days by replacing with fresh medium containing RANKL with or without tested drugs. Cells were fixed and stained with TRAP-staining kit (Sigma-Aldrich) according to the manufacturer's instructions. TRAP-positive multinuclear cells (>3 nuclei) were counted under the inverted microscope.

[4] = test system: non-adherent mononuclear bone marrow cells from healthy donors; format: cell-based
Method: (§3) Non-adherent mononuclear cells (10^5 cells/well) from either healthy donor or multiple myeloma patients, as well as purified human CD34^+ cells, were seeded in 96-well multi-plates at 100 μl/well in α-MEM medium containing 20% horse serum, 10 ng/ml M-CSF and 50 ng/ml RANKL. […] Half media change was carried out twice a week.
as §2

MC-42 cells = assay: Osteoblast mineralization (von Kossa); format: cell-based, mouse; settings: 48 hours, 5.0 mM inorganic phosphate
From the text: as §1

RPMI-8226 cells = assay: Proliferation assay (3H-thymidine incorporation), RPMI-8226; format: cell-based, human; settings: RPMI-1822 / RPMI cells as printed, 48 hours
Method: (§4) DNA synthesis was measured by ^3H-thymidine incorporation (3H-TdR; NEN Products, Zaventem, Belgium). Cells were pulsed with ^3H-thymidine (1 μCi/well) during the last 8 hours of culture, harvested onto glassfibre filter mats (Wallac, Gaithersburg, Md.) with an automatic cell harvester (Tomtec Harvester 960 MachIII), and counted using Wallac TriLux Beta plate scintillation counter. All experiments were performed in triplicate.

[5] = test system: bone marrow cells from healthy donor on whale dentin slices; assay: Osteoclastic bone resorption on dentin slices; format: cell-based, human; settings: 3 weeks
Method: Bone marrow cells from healthy donor (2×10^5 cells/well) were seeded on whale dentin slices in 96-well multi-plates at 100 μl/well in α-MEM medium containing 20% horse serum. In addition, 10 ng/ml M-CSF and 50 ng/ml RANKL were added. Half media changes were performed twice a week with fresh media. […] Culture was continued for 3 weeks at 37° C. in an incubator of 5% CO2-air. After 3 weeks, dentin slices were stained with TRAP staining to confirm the osteoclast formation. Then, bone resorption lacunae were stained with hematoxylin. Pit area was quantified by using the public domain NIH ImageJ program. Fixed small representative areas on dentin slices selected and the mean resorption areas were determined.

IκBα = assay: Western blot of IκBα phosphorylation and degradation, MM.1S; format: cell-based, human
Method: For detection of p65 translocation, cellular nuclear and cytoplasmic extracts were prepared with Nuclear and Cytoplasmic Extraction Reagents (Pierce, Rockford, Ill.). Cell lysates (20-40 μg) were subjected to 10% sodium dodecyl sulfate-polyacrylamide gel electrophoresis and transferred to PVDF membrane (Millipore, Danvers, Mass.). The blots were probed with anti-p65, anti-phospho p65, anti-IκB-α, anti-phospho IκB-α, or anti-phospho IKK-γ (all from Cell Signaling, Beverly, Mass.), and beta-actin antibody (Amersham, Piscataway, N.J.). Immune complexes were detected using enhanced chemiluminescence (Amersham).

OPM2 cells = assay: Proliferation assay (3H-thymidine incorporation), OPM2; format: cell-based, human; settings: 48 hours
Method: as §4

MM.1S cells = assay: Proliferation assay (3H-thymidine incorporation), MM.1S; format: cell-based, human; settings: 48 hours
Method: as §4

[6] = test system: non-adherent mononuclear bone marrow cells from multiple myeloma patients; assay: Osteoclast formation assay, MM patient bone marrow; format: cell-based, human
Method: as §3, §2

RAW 264.7 cells [7] = assay: Cellular viability of RAW 264.7 cells; format: cell-based, mouse; settings: data not shown
IFN-γ = assay: Bio-plex cytokine assay of osteoclast culture supernatants: IFN-γ; format: cell-based, human; settings: three weeks treatment
Method: (§5) Supernatants collected on day 5, 9, 12, 16 and 21 were analyzed for expression of IL-1α, IL-1β, IL-2, IL-3, IL-4, IL-5, IL-6, IL-7, IL-8, IL-9, IL-10, IL-13, IL-15, IL-17, IL-12p40, IFNα, IFNγ, TNF-α, TNFR-I, TNFR-II, G-CSF, GM-CSF, MCP-1, MIP-1α, MIP-1β, MIG, IP-10, EOTAXIN, RANTES, DR5, EGF, VEGF, FGF-b, and HGF by Bio-plex Cytokine Assay (BIO-RAD Laboratories, USA).

[8] = test system: MIG (monokine induced by IFN-gamma); assay: Bio-plex cytokine assay of osteoclast culture supernatants: MIG; format: cell-based, human; settings: three weeks treatment
Method: as §5

[9] = test system: CD34+ cells (hematopoietic progenitors); assay: Colony assays in methylcellulose; format: cell-based, human; settings: 14 days
Method: Methocult GF H4434 contained the following hematopoietic growth factors: recombinant human (rh) Erythropoietin 3 U/ml, rh SCF 50 ng/ml, rh granulocyte-macrophage colony-stimulating factor (GM-CSF) 10 ng/ml, and rh IL-310 ng/ml as well as Methylcellulose (1%), Fetal Bovine Serum 30%, Bovine Serum Albumin (1%), 2-Mercaptoethanol ([…]), and L-glutamine (2 mM). Cells were incubated in at 37° C., 5% CO2 with 95% humidity for 14-16 days. Formation and relative distribution of burst forming unit-erythroid (BFU-E), colony forming unit-macrophages (CFU-M) and colony forming unit-granulocyte, macrophage (CFU-GM) colonies were evaluated by scoring under an inverted microscope. Each colony experiment was carried out in triplicate.

[10] = test system: MM cell lines and freshly isolated primary MM cells; settings: Yasui H et al., 2005; cited from earlier work

## CCc1cccc2c3c([nH]c12)[C@@](CC)(CC(=O)O)OCC3 [SDX-101, R-etodolac]
MIP-1α
  MIP-1α in supernatant: 6,000 pg/ML
[1]
  ALP activity: did not decrease the ALP activity
[2]; first 1, 2 or 3 weeks or last 1, 2 or 3 weeks
  osteoclast inhibition by time point of drug addition: no differences in osteoclast inhibition
[2]; purified CFU-GM cells, 21 days
  osteoclast numbers formed from osteoclast progenitor cells: significantly decreased osteoclast numbers
RAW 264.7 cells [3]
  RANKL-induced OCL formation from RAW 264.7 cells: suppressed
[4]; 3 weeks, RANKL 50 ng/ml, M-CSF 10 ng/ml
  doses exhibiting inhibition of OCL formation: over 50 μM
[4]; any doses tested
  cell death during the 3 week OCL formation assay: No cell death was observed
[4]; healthy donor cells, SDX-101 75 μM, SDX-308 7.5 μM, 3 weeks vs first/last 1 or 2 weeks
  inhibition of OCL formation, time course of drug addition: significantly higher when drug was added during the entire 3 weeks
[4]; healthy donor cultures, 21-day assay, SDX-101 30 to 100 μM, SDX-308 3 to 10 μM
  inhibition of RANK-L/M-CSF-induced human osteoclastogenesis: dose-dependent inhibition
MC-42 cells
  mineralization of osteoblasts (von Kossa staining): did not inhibit mineralization
RPMI-8226 cells
  concentration at which DNA synthesis (thymidine incorporation) was significantly inhibited: 100 µM
[5]; 75 μM, untreated control 8.6
  measured bone resorption area: 1.3 mm^2
[5]; SDX-101 75 μM, SDX-308 7.5 μM
  bone resorption: inhibited significantly
IκBα
  TNF-induced IκBα phosphorylation and degradation: minor or no obvious effect
OPM2 cells
  concentration at which DNA synthesis (thymidine incorporation) was significantly inhibited: 100 µM
MM.1S cells
  concentration at which DNA synthesis (thymidine incorporation) was significantly inhibited: 10 µM
[6]; MM patient cells, SDX-101 75 μM, SDX-308 7.5 μM, 3 weeks vs first/last 1 or 2 weeks
  inhibition of OCL formation, time course of drug addition: significantly higher when drug was added during the entire 3 weeks
[6]; MM patient cultures, 21-day assay, SDX-101 30 to 100 μM, SDX-308 3 to 10 μM
  inhibition of RANK-L/M-CSF-induced human osteoclastogenesis: dose-dependent inhibition
RAW 264.7 cells [7]
  cellular viability, drug alone: no significant effects
IFN-γ
  IFN-γ secretion in osteoclast formation assays: significantly decreased
[8]
  MIG secretion in osteoclast formation assays: significantly decreased
[9]; CD34+ cells
  number of the CFU colonies formed compared to untreated cells: not significantly different
[9]; SDX-101 30, 50, 75 μM, SDX-308 1, 5, 7.5 μM
  interference with hematopoietic lineage commitment: none of the doses tested for both SDX derivatives interferes
[10]
  apoptosis: induces apoptosis
